Reference: patent US20150071856A1, “ANTAGONISTIC PEPTIDES FOR FRIZZLED-1 AND FRIZZLED-2” (Universiteit Maastricht, priority 2013, published 2015)
“Also recorded” adds a separate entry of the source. Residues, ends and D or L forms follow the SMILES beside them.

Tests used:
[1] = test system: myocardial infarction; experiment: Echocardiography of mice after myocardial infarction; type: in vivo; conditions: UM206-treated group post-MI
Description: All animals were subjected to extensive echocardiography studies for the assessment of myocardial infarct size, LV cavity dimensions and ventricular function. Echocardiography examination was performed under 2% isofluorane. Echocardiograms were recorded with Philips Sonos 5500 ultrasound system (Philips, Eindhoven, the Netherlands) using a 20-MHz linear probe.

[2] = test system: myocardial infarction; conditions: mouse, in vivo
Description: To this end, we administered UM206 subcutaneously by an osmotic minipump (6 microgram/kg/day); the control group was equipped with a saline-filled minipump. The minipumps were implanted at the time of infarct induction and lasted for up to five weeks.
Male Swiss mice were used (10-12 weeks of age, Charles River, Maastricht, The Netherlands). The animals were randomly included into the three different experimental groups. […] In the treatment study, either UM206 (6 μg/kg/day) or saline were administrated by an osmotic minipump (Alzet 2002 or 2006 for two- and five-week treatments, respectively; Alzet, Cupertino Calif., USA). MI was induced, under isofluorane anesthesia as previously described (van den Borne et al., 2009).

[3] = molecular target: T1, frizzled-2 (rFzd-2) (Rattus norvegicus, UniProt Q08464); experiment: Activity assay: luciferase reporter in HEK superTOPflash cells transfected with frizzled-2; type: cell-based
T1 construct: expressed in transfected cells; host or cells: HEK293 superTOPflash (transient, Fugene6, pcDNA3.1/hygro)
Description: Human embryonic kidney (HEK) cells were used for screening. These cells have a luciferase construct stably transfected into the genome (see FIG. 2A), such that when the frizzled receptor is activated and β-catenin is increased, the luciferase is activated by transcription and light can be measured.
The peptides were tested by transfecting the frizzled-1 or the frizzled-2 receptor and addition of UM206(S-S) to the cell culture. For testing antagonistic activity, UM206 was added and the natural ligand Wnt3a was added, which is a natural stimulus for the canonical pathway.
Day 2: Transfection 12-Well Plates • heat Fugene6 and DNA 15 minutes at RT • 2 ml serum-free medium in tube • add 3 μl fugene • add 2 μg DNA • incubate 30 minutes at RT • wash with PBS • add 50 μl transfectiemix • add 1 ml antibiotica-free medium
Day 3: Add Conditioned Medium or UM206
Day 4: Luciferase Activity Measurements • remove medium • wash with PBS • add 500 μl ⅕ lysisbuffer • shake for 60 minutes • centrifuge in tube • 20 μl lysaat and 50 μl luciferase in new tube for measurement • vortex • measure
Three areas of high homology that contained two cysteines are underlined (UM207), (UM208) and (UM206). In FIGS. 9B through 9D, the inhibitory effect of these three peptides on Wnt3a-induced luciferase activity in HEK293-superTOPflash is shown. […] Again, the peptides by themselves had no effect on the luciferase activity.
To determine the inhibitory constant of UM206-8, HEK293-superTOPflash cells were transfected with either rFzd-1 or -2 and incubated with Wnt3a (10^−9M) in the presence of increasing concentrations of either of the peptides (FIG. 15). For UM206, a biphasic inhibition curve was observed that was best fitted with a two-binding-state model.
The cell lines were cultured in 75 cm^2 culture flasks (Corning, Schiphol, the Netherlands) in Dulbeco's modified essential medium with L-glutamine (2 mM), 10% fetal calf serum (Invitrogen, Merelbeke, Belgium), and 1% gentamycin (Sigma-Aldrich, Zwijndrecht, The Netherlands). Before starting the experiment, the cell lines were treated with plasmocin 25 μg/ml (Invivogen, Toulose, France) and tested with a mycoalert mycoplasma detection kit (Lonza, Rockland Me., USA). Cells were transiently transfected with Fugene6 (Roche, Indianapolis Ind., USA) with plasmid DNA, pcDNA3.1/hygro (Invitrogen) with frizzled-1/2/4 or Wnts 3a-5a or with pcDNA3.0 (Invitrogen) containing the β-catenin or frizzled-5 sequence. After transfection, the cells were cultured for 24 hours in conditioned medium, collected from the cultured L-cells, L-cells with Wnt3a or 5a (Invitrogen). At the same moment the antagonist was added.

T1 sequence (Q08464 29-570): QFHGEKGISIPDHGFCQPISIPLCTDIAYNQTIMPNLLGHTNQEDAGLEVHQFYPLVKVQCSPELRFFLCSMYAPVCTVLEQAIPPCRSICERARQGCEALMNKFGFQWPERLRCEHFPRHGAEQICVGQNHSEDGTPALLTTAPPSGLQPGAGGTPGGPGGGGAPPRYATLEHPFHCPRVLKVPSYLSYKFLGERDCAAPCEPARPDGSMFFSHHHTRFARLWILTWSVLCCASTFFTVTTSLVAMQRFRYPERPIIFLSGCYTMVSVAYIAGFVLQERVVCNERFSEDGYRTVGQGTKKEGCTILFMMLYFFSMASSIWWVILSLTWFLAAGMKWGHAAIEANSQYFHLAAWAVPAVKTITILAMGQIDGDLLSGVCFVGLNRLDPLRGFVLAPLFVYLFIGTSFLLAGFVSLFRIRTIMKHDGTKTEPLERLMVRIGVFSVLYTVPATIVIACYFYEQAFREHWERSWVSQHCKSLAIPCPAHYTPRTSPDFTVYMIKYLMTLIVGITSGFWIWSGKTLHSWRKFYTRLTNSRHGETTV

## CSCC[C@H](NC(=O)CNC(=O)[C@H](CCC(=O)O)NC(=O)[C@H](CO)NC(=O)[C@@H](NC(=O)[C@H](CCCCN)NC(=O)[C@H](CC(N)=O)NC(=O)[C@H](CS)NC(C)=O)[C@@H](C)O)C(=O)N[C@@H](CC(=O)O)C(=O)NCC(=O)N[C@@H](CS)C(=O)N[C@@H](CCC(=O)O)C(=O)N[C@@H](CC(C)C)C(N)=O [UM206, Ac-Cys-Asn-Lys-Thr-Ser-Glu-Gly-Met-Asp-Gly-Cys-Glu-Leu-NH2] (Ac-CNKTSEGMDGCEL-NH2)
[1]
  change of ejection fraction versus saline: doubling of the ejection fraction
  reduction in end diastolic volume of the left ventricle versus saline: 40%
[2]
  adverse effects of chronic administration: did not observe any adverse effects
  effects on other organs known to contain Fzd-2, including kidney and small intestine: did not observe any effects
[3]
  selectivity frizzled-2 over frizzled-1: slightly more selective for frizzled-2 over frizzled-1
[3]; Wnt3a-induced luciferase activity, antagonists at 1.10^−9 M
  % of inhibition for Fzd-2: 75.06%
[3]; peptide 1.10^−8 M
  block of Wnt3a-induced luciferase activity, rFzd-2: blocked almost completely; also recorded: abolished the induction of luciferase activity almost completely
